Results reported in patent publication US6458782B1, “Remedies for diabetes” (priority 1997, dated 2002).

Columns and labels:
adipocyte strain 3T3L1 = test: Enhancement of the differentiation of precursor adipocytes into adipocytes induced by a thiazoline compound (troglitazone); type: cell-based; conditions: for Absorbance (490 nm): single compound 10^−7 M, culture 10 days, Control 0.086
From the text: The culture was continued for 10 days.

adipocyte strain 3T3L-1 [1] = test: Enhancement of the differentiation of precursor adipocytes into adipocytes induced by insulin; type: cell-based; conditions: for Absorbance (490 nm): culture 9 days, Not added 0.072
Experimental: (§1) Therefore, effect of the medicaments of the present invention on enhancement of differentiation of precursor adipocytes into adipocytes was examined by using an adipocyte strain 3T3L-1 (obtained from Japanese Cancer Research Resource Bank) according to the published method (Endocrinology, 137, 4706, 1996). The cells were cultured in a culture dish having a diameter of 6 cm as a monolayer, and added with HX600, HX-620, HX-630, or HX-640 when the cells reached a density at which the cells began to contact with one another. After the culture for 13 days, lipid droplets in the cells were stained with Oil Red O. The dye was extracted with 1.0 ml of isopropanol (a modified method described in Methods in Enzymology, 32, 192), and absorbance (490 nm) of the extract was measured and used as index of differentiation into adipocytes.
Synergistic effect of insulin used for therapeutic treatment of diabetes and the medicament of the present invention was examined. Cells of the adipocyte strain 3T3L-1 were cultured in a culture dish having a diameter of 3.5 cm as a monolayer, and added with 10 μg/ml of insulin and HX-600 (10^−6 M or 10^−8 M) when the cells reached a density at which the cells began to contact with one another. The culture was continued for 9 days.

adipocyte strain 3T3L-1 [2] = test: Differentiation of precursor adipocytes into adipocytes (Oil Red O staining, absorbance of extract); type: cell-based; conditions: culture for 13 days; for Absorbance (490 nm): Oil Red O extracted with isopropanol, Control 0.266
Experimental: as §1

[3] = test system: diabetic mice (C57BL/6J-Lepob); test: Hypoglycemic action in diabetes model mice (blood glucose and acylglycerol level); type: in vivo; conditions: for Blood acylglyerol level, percentage based on the control group / Blood glucose level, percentage based on the control group / Blood acylglyerol level / Blood glucose level: 6th day; for Blood acylglyerol level: Control 132 ± 14; for Blood glucose level: Control 428 ± 82
Experimental: Experiments were performed by using diabetic mice hereditarily have pathological conditions of fatness, hyperglycemia, and hyperlipidemia (C57BL/6J-Lepob, female, Jackson Laboratory, 10-week old) according to the method described in the literature (Diabetologia, 14, 141, 1978). Blood samples were collected one day before the start of the administration, and the mice were divided into three groups (one group consisted of 4 or 5 mice). One group was used as a medication group, and each mouse of the group was orally administered with HX-600 suspended in 0.1% carboxymethylcellulose as microparticules (30 mg/kg/day or 100 mg/kg/day) every day for 6 days. Mice of the control group were orally administered with only 0.1% carboxymethylcellulose. On the 6th day after the start of the administration, blood samples were collected from ophthalmic fundus veins.
Blood glucose level was measured by the glucose oxidase method (Fuji Drychem Slide GLU-P), and acylglycerol level was measured by the glycerol phosphate dehydrogenase method (Fuji Drychem Slide TG-P). As a measurement apparatus, Fuji Drychem 5000 was used. […] Percentages based on the control group are also indicated.

[4] = 30 mg/kg/day and 100 mg/kg/day, 6th day of the administration

Compound	Absorbance (490 nm) (adipocyte strain 3T3L1)	Absorbance (490 nm) (adipocyte strain 3T3L-1 [2]; 10^−6 M)	Absorbance (490 nm) (adipocyte strain 3T3L-1 [2]; 10^−7 M)	Absorbance (490 nm) (adipocyte strain 3T3L-1 [2]; 10^−8 M)	differentiation of precursor adipocyte 3T3L-1 into adipocytes (in words) (adipocyte strain 3T3L-1 [2])	further results
Cc1c(C)c2c(c(C)c1O)CCC(C)(COc1ccc(CC3SC(=O)NC3=O)cc1)O2 (stereo not drawn) [CS-045, troglitazone, reference compound]	0.171	–	–	–	–	–
insulin	–	–	–	–	–	Absorbance (490 nm) (adipocyte strain 3T3L-1 [1]; insulin 10 μg/ml alone): 0.301
4-[2,3-(2,5-dimethyl-2,5-hexano)dibenzo[b,e]azepin-11-yl]benzoic acid [HX-640]	–	0.825	0.694	0.365	strongly promoted	–
CN1c2ccccc2N=C(c2ccc(C(=O)O)cc2)c2cc3c(cc21)C(C)(C)CCC3(C)C [HX-600, 4-[5H-2,3-(2,5-dimethyl-2,5-hexano)-5-methyldibenzo [b,e][1,4]diazepin-11-yl]benzoic acid]	0.131	0.690	0.445	0.274	strongly promoted	action of inducing differentiation into adipocytes by CS-045 (in words) (adipocyte strain 3T3L1; HX600 10^−7 M with CS-045 10^−7 M, 10 days): synergistically promoted; Absorbance (490 nm) (adipocyte strain 3T3L-1 [1]; HX-600 10^−6 M alone): 0.287; differentiation into adipocytes induced by the action of insulin (in words) (adipocyte strain 3T3L-1 [1]; HX-600 10^−6 M and 10^−8 M with insulin 10 μg/ml, 9 days): synergistically promoted; Absorbance (490 nm) (adipocyte strain 3T3L-1 [1]; HX-600 10^−8 M alone): 0.118; acylglycerol level versus the control group (in words) [3, 4]: remarkably lower; blood glucose level versus the control group (in words) [3, 4]: remarkably lower; Blood acylglyerol level, percentage based on the control group ([3]; 30 mg/kg/day oral for 6 days): 79.5%; Blood glucose level, percentage based on the control group ([3]; 30 mg/kg/day oral for 6 days): 60.3%; Blood acylglyerol level ([3]; 30 mg/kg/day oral for 6 days): 105 ± 14 mg/dL; Blood glucose level ([3]; 30 mg/kg/day oral for 6 days): 258 ± 56 mg/dL; Blood acylglyerol level, percentage based on the control group ([3]; 100 mg/kg/day oral for 6 days): 72.7%; Blood glucose level, percentage based on the control group ([3]; 100 mg/kg/day oral for 6 days): 55.6%; Blood acylglyerol level ([3]; 100 mg/kg/day oral for 6 days): 96 ± 11 mg/dL; Blood glucose level ([3]; 100 mg/kg/day oral for 6 days): 238 ± 59 mg/dL
CC1(C)CCC(C)(C)c2cc3c(cc21)Oc1ccccc1N=C3c1ccc(C(=O)O)cc1 [HX-620, 4-[2,3-(2,5-dimethyl-2,5-hexano)dibenzo[b,f][1,4]oxazepin-11-yl]benzoic acid]	–	0.543	0.308	0.225	strongly promoted	–
CC1(C)CCC(C)(C)c2cc3c(cc21)Sc1ccccc1N=C3c1ccc(C(=O)O)cc1 [HX-630, 4-[2,3-(2,5-dimethyl-2,5-hexano)dibenzo[b,f][1,4]thiazepin-11-yl]benzoic acid]	–	0.745	0.471	0.298	strongly promoted	–
